Laboratory results published in paper PMC8262356, “SLC26A6-selective inhibitor identified in a small-molecule screen blocks fluid absorption in small intestine” (JCI Insight, 2021).

Assays:
CFTR = target: T1, CFTR (Homo sapiens, UniProt P13569); test: Short-circuit current in well-differentiated HBE cells, forskolin/CFTRinh-172 response; type: cell-based; conditions: 25 μM pretreatment
T1 construct: endogenous in cells; host or cells: well-differentiated human bronchial epithelial (HBE) cells at air-liquid interface
T1 sequence (P13569 whole entry): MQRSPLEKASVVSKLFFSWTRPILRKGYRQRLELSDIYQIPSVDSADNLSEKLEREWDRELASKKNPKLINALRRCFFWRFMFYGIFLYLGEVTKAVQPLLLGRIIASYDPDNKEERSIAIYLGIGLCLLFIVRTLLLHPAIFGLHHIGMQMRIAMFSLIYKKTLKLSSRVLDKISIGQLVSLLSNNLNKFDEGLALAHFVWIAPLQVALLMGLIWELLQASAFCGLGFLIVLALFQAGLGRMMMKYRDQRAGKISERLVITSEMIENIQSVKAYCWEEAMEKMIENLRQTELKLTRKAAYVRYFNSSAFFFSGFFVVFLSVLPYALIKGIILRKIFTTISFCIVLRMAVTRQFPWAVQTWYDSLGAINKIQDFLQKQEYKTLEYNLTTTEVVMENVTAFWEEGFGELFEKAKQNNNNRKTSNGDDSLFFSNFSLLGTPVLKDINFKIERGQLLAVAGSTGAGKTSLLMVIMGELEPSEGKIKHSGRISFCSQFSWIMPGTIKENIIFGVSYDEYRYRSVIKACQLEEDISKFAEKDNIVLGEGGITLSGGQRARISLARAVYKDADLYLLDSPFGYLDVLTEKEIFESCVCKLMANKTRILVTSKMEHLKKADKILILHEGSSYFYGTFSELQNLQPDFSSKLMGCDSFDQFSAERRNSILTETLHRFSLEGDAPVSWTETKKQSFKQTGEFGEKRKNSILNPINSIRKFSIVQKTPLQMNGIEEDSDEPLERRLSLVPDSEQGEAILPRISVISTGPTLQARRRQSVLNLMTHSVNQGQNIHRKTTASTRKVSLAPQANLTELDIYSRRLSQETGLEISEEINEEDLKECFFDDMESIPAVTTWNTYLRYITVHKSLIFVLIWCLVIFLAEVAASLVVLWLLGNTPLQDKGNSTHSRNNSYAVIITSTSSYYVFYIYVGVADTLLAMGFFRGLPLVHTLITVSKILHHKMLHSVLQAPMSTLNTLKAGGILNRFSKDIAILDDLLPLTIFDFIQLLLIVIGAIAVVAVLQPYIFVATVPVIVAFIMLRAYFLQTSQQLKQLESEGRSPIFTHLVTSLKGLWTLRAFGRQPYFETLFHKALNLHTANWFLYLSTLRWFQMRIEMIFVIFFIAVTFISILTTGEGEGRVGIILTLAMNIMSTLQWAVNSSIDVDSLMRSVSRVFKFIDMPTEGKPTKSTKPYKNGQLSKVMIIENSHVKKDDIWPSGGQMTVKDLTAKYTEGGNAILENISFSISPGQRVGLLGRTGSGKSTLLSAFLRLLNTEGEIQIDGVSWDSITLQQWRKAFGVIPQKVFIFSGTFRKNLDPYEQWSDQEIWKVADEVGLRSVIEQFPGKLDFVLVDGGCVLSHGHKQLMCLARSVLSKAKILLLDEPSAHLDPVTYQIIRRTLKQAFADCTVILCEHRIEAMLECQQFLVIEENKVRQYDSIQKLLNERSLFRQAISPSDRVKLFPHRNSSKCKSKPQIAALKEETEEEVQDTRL
Protocol: PAT1inh-B01 selectivity was studied by testing its effects on related SLC26A family anion transporters and the Cl^– channel TMEM16A. These measurements used a similar Cl^–/I^– exchange protocol, but FRT cells separately expressed each of the SLC26A family members or TMEM16A. […] PAT1inh-B01 selectivity was also tested by short-circuit current (Isc) in well-differentiated human bronchial epithelial (HBE) cells, which have a complex ion transport mechanism that includes cystic fibrosis transmembrane conductance regulator (CFTR), epithelial Na^+ channel (ENaC), and Ca^+2-activated chloride channels (CaCCs) ([13]). […] Potential PAT1inh-B01 cytotoxicity was studied in FRT cells.
Figure 3 PAT1inh-B01 selectivity and cytotoxicity. […] Cl^–/I^– exchange or I^– influx measured in FRT cells coexpressing YFP and SLC26A isoforms or TMEM16A, with data shown for 25 μM PAT1inh-B01, DMSO vehicle control, and 500 μM niflumic acid (positive control for SLC26A transporters) or 10 μM TMinh-23 (positive control for TMEM16A). […] (C) (left) Short-circuit current (Isc) in well-differentiated HBE cells measured in the absence (top) and presence (bottom) of 25 μM PAT1inh-B01. […]
YFP-based cellular assays of slc26a3, slc26a4, SLC26A9, and TMEM16A function were performed as described previously ([7]). […] The activities of ENaC, CFTR, and CaCC were determined using well-differentiated HBE cells as described previously ([13]). […]

mouse ileal closed loops = test: Closed ileal loop fluid absorption; type: in vivo
Protocol: For fluid absorption studies in small intestine, mice were given free access to 5% dextrose in water but not solid food for 24 hours before experiments. Closed midjejunal and ileal loops were prepared and isolated as described previously ([29]). Mice were anesthetized with isoflurane, and body temperature was maintained during surgery at 36°C–38°C using a heating pad. A small abdominal incision was made to expose small intestine for isolation of 3–4 closed small intestinal loops (jejunum or ileum, length 2–3 cm) with sutures. Loops were injected with 100 μL PBS (pH 7.4, 137 mM NaCl, 2.7 mM KCl, 8 mM Na2HPO4, 1.8 mM KH2PO4, 1 mM CaCl2, 0.5 mM MgCl2) containing 30 μM PAT1inh-B01, 10 μM DRAinh-A270, or 10 μM tenapanor (MedChemExpress) (or vehicle, 0.1% DMSO in PBS). In some experiments, 30 μM PAT1inh-B01 and 10 μM DRAinh-A270 were used together. In some experiments to rule out effects of sodium-dependent phosphate transport, the loop lumen contained HEPES-buffered saline (pH 7.4, 137 mM NaCl, 4.5 mM KCl, 10 mM HEPES, 1 mM CaCl2, 0.5 mM MgCl2). The abdominal incision was closed with sutures, and mice were allowed to recover from anesthesia. Intestinal loops were removed at 0 and 30 minutes (in separate mice), and loop length and weight were measured to quantify fluid absorption. In parallel experiments, CF mice were used and loop studies were done as described above. In some experiments, loop fluid was emptied with a syringe, and pH was measured immediately using AB15 pH meter after brief centrifugation at 2000 g for 5 minutes at 4°C.

[1] = test system: loperamide-induced constipation in mice; test: Loperamide model of constipation; type: in vivo, mouse; conditions: 10 mg/kg, oral, stool collected over 3 hours
Protocol: Wild-type CD1 mice were administered loperamide (0.3 mg/kg, intraperitoneally) in PBS containing 5% ethanol (0.1 mg/mL final concentration) to induce constipation ([9], [30]). PAT1inh-B01 and DRAinh-A270, individually or together (10 mg/kg each, in saline containing 5% DMSO and 10% Kolliphor HS 15), or vehicle control were administered by oral gavage 1 hour before loperamide. After loperamide injection mice were placed individually in metabolic cages with free access to food and water. Stool samples were collected for 3 hours, and total stool weight and number of fecal pellets were quantified. To measure stool water content, stool samples were dried at 80°C for 24 hours and water content was calculated as follows: (wet weight – dry weight)/wet weight ([9], [30]).

Solubility = type: physicochemical

effect on CFTR activity (Isc response to forskolin/CFTRinh-172) (CFTR): no significant effect | solubility (Solubility): favorable
Compound: Cc1c(Br)c(C(F)(F)F)nn1CC(=O)N1CCc2nc3cc(-c4ccccc4)[nH]n3c(=O)c2C1 [PAT1inh-B01]
effect on ileal fluid absorption (loop weight-to-length ratio) (mouse ileal closed loops; 30 μM luminal, 30 minutes, PBS): fully blocked | effect on increase of ileal loop fluid pH (mouse ileal closed loops; 30 minutes after injection of PBS (pH 7.4), control pH greater than 8.0): prevented | effect on ileal fluid absorption in absence of luminal phosphate (mouse ileal closed loops; HEPES-buffered saline): effectively blocked | block of fluid absorption in ileal loops (mouse ileal closed loops; ileal loops (abstract)): > 80% | effect on stool parameters (weight, number of pellets, water content) [1]: did not affect
